The IC50 is the concentration at which inhibition is half-maximal.

Where two headings read alike, the source gives them in different places. Starred links: 1 amine or outer side, 2 acyl side, 3 side chain; linkers in the order of their positions; H or OH if unused. Positions of bridges follow the written chain, without caps; N, C: chain ends. Non-standard residues stand in square brackets, D forms with d. Residues, ends and D or L forms follow the SMILES beside them. No end group written: not given here. ξ: configuration not given here. ξαMeNle(6-ylidene) = CC(CCCC=[*:3])(N[*:1])C(=O)[*:2]; X1 = CC(CCCCCCC=[*:3])(N[*:1])C(=O)[*:2]; Octanediyl(1,8) = C(CCCC[*:2])CCC[*:1]; ξC = NC(CS)C(=O)O

What all share (format): cell-based
Test [1] has as its system RPMI-8266-LR5, lymphoblast (myeloma), selected for resistance to Melphalan. The settings on record: RPMI-LR5; 72 hr; Table 14; read-out: IC50 after 72 hr values. On the procedure:
RPMI-8266-LR5, lymphoblast (myeloma), selected for resistance to Melphalan (Bellamy W T et al., Cancer Res. 1991 Feb. 1; 51(3):995-1002).
All cell lines were cultured in incubator at 37° C. in RPMI-1640 (Sigma R8758) medium with 10% of fetal bovine serum inactivated (FBS) and 2 mM glutamine (Sigma G7513). During the amplification step cells were centrifuged and transferred into the culturing medium. Cells were counted in a Neubauer chamber after labelling with Tripan-Blue.
Cells were seeded at a density of 10000 cells/well in 100 μl of medium in 96 well plates. After 24 h, the compounds to be tested were added to calculate the dose/response curve at the starting concentration of 100 μM with serial dilutions (1:1). Controls are the untreated cells. Each experiment was performed in triplicate.
(§1) Cells were incubated with the peptidomimetic compound (S09) at the indicated concentrations during 24-72 h in incubator under CO2 atmosphere at 37° C. Then, cell viability was measured by means of MTT (3-(4,5-dimethylthiazol-2-yl)-2,5-diphenyltetrazolium bromide) assay. Stock solution of MTT (475989 Calbiochem) was 5 mg/ml in PBS. 1×.10 μl/well of MTT solution were added and the plate was incubated for 3-4 hr. The medium was discarded and 100 μl of extracting buffer (PBS 1×, 15% SDS, 50% […] N,N-Dimethylformamide, pH 4.7) were added to each well. Plates were incubated for 16 h at room temperature under orbital shaking. Absorbance at 570 nm was finally measured. As negative control (experiment noise) 3 wells were treated with 20 μl/well of a solution of SDS 10% in H2O.
Data analysis was performed calculating the percentage of cell viability normalized vs. the values of negative control, which was considered equal to 100%. The dose/response curve was fitted through the sigmoidal equation dose-response (variable slope) and the IC50 values were calculated as follow:
Y=Bottom+(Top−Bottom)/(1+10^{[(LogIC50−X)*HillSlope]},
All cell lines were cultured in incubator at 37° C. in RPMI-1640 (Sigma R8758) medium with 10% of fetal bovine serum inactivated (FBS) and 2 mM glutamine (Sigma G7513).
Cells were seeded at a density of 10,000 cells/well in 100 μl of medium in 96 well plates. After 24 h, the compounds to be tested were added to calculate the dose/response curve at the starting concentration of 40 μM with serial dilutions (1:1). Controls are the untreated cells. Each experiment was performed in triplicate.
as §1, with “compounds” for “compound (S09)”

The subject of test [2] is MCF-7, epithelial (breast cancer). As for the experimental part:
(§2) MCF-7, epithelial (breast cancer), ECACC: 86012803 […] During the amplification step and the assays adherent cells were rinsed with DPBS (Dulbecco's Phosphate Buffered Saline, Sigma D1283) three times and afterward treated for 5 minutes with trypsin ([…]) (Gibco-BRL, 15400054) in solution of DPBS at 37° C., and, once detached, transferred in the culturing medium. No-adherent cells were centrifuged and transferred in the culturing medium. Cells were counted in a Neubauer chamber after labelling with Tripan-Blue. […] Cells were seeded at a density of 10000 cells/well in 100 μl of medium in 96 well plates. […] Controls are the untreated cells. Each experiment was performed in triplicate. Cells were incubated with the compounds at the indicated concentrations during 24-72 h in incubator under CO2 atmosphere at 37° C. […] Stock solution of MTT (475989 Calbiochem) was 5 mg/ml in PBS. 1×.10 μl/well of MTT solution were added and the plate was incubated for 3-4 hr. […] Plates were incubated for 16 h at room temperature under orbital shaking. Absorbance at 570 nm was finally measured. […] The dose/response curve was fitted through the sigmoidal equation dose-response (variable slope) and the IC50 values were calculated as follow: Y=Bottom+(Top−Bottom)/(1+10^{[(LogIC50−X)*HillSlope]},

In test [3] the test system is RAMOS, B lymphocyte (Burkitt's Lymphoma). In words: MTT viability assay, RAMOS. As for the experimental part:
as §2, with “RAMOS, B lymphocyte (Burkitt's Lymphoma), ATCC: CRL-1596” for “MCF-7, epithelial (breast cancer), ECACC: 86012803”

Where [4] appears, read: MCF7, same protocol as Example 2, Table 6, read-out: Compound (IC50).
Setting [5] is: Ramos, same protocol as Example 2, Table 6, read-out: Compound (IC50).

Regarding `CC[C@H](C)[C@H](NC(=O)[C@H](Cc1ccc(O)cc1)NC(=O)[C@H](C)NC(=O)C1CSCCCCCCCCSCC(NC(=O)[C@H](CCCCN)NC(=O)[C@@H]2CCCN2C(=O)[C@H](C)N)C(=O)N[C@@H](C(C)C)C(=O)N[C@@H]([C@@H](C)CC)C(=O)N[C@@H](CC(C)C)C(=O)N[C@@H](CCCCN)C(=O)N[C@@H](CCCCN)C(=O)N[C@@H](C)C(=O)N1)C(=O)N[C@@H](CC(C)C)C(=O)N[C@@H](CO)C(=O)O` (some centres unmarked) [IDP-P1708160] (H-APK[ξC]VILKKA[ξC]AYILS-OH; linker 4-11 via Octanediyl(1,8); N-terminus and C-terminus assumed), in test [1], the IC50 is 7.5 µM.

`CC[C@H](C)[C@H](NC(=O)[C@@H](NC(=O)[C@@H](NC(=O)[C@H](CCCCN)NC(=O)[C@@H]1CCCN1C(=O)[C@H](C)N)C(C)C)C(C)C)C(=O)NC1(C)CCCCCCC=CCCCC(C)(C(=O)N[C@@H](CC(C)C)C(=O)N[C@@H](CO)C(=O)O)NC(=O)[C@H](Cc2ccc(O)cc2)NC(=O)[C@H](C)NC(=O)[C@H]([C@@H](C)O)NC(=O)[C@H](C)NC(=O)[C@H](CCCCN)NC(=O)[C@H](CCCCN)NC1=O` (some centres unmarked) [IDP-S17, APKVVIXKKATAYXLS] (H-APKVVI[X1]KKATAY[ξαMeNle(6-ylidene)]LS-OH; staple 7-14; N-terminus and C-terminus assumed): the IC50 in test [2] and in test [3] was more than 100 µM throughout.

Consider `CC[C@H](C)[C@@H]1NC(=O)[C@H](Cc2ccc(O)cc2)NC(=O)[C@H](C)NC(=O)[C@H]([C@@H](C)O)NC(=O)[C@H](C)NC(=O)[C@H](CCCCN)NC(=O)C(C)(NC(=O)[C@H](CC(C)C)NC(=O)[C@@H](NC(=O)[C@@H](NC(=O)[C@@H](NC(=O)[C@H](CCCCN)NC(=O)[C@@H]2CCCN2C(=O)[C@H](C)N)C(C)C)C(C)C)[C@@H](C)CC)CCCCCCC=CCCCC(C)(C(=O)N[C@@H](CO)C(=O)O)NC1=O` (some centres unmarked) [IDP-S18, APKVVILXKATAYIXS] (H-APKVVIL[X1]KATAYI[ξαMeNle(6-ylidene)]S-OH; staple 8-15; N-terminus and C-terminus assumed), for which the IC50 in test [2] and in test [3] was more than 100 µM in each case.

With “RQIKIWFQNRRMKWKKNELKRAFAALRDQI [Int-HI-S6A-F8, reference compound]”, the IC50 in test [2] and in test [3] was more than 100 µM each time.

As for `CC[C@H](C)[C@H](NC(=O)[C@H](Cc1ccc(O)cc1)NC(=O)C1(C)CCCC=CCCCCCCC(C)(NC(=O)[C@@H](NC(=O)[C@H](CCCCN)NC(=O)[C@@H]2CCCN2C(=O)[C@H](C)N)C(C)C)C(=O)N[C@@H]([C@@H](C)CC)C(=O)N[C@@H](CC(C)C)C(=O)N[C@@H](CCCCN)C(=O)N[C@@H](CCCCN)C(=O)N[C@@H](C)C(=O)N[C@@H]([C@@H](C)O)C(=O)N1)C(=O)N[C@@H](CC(C)C)C(=O)N[C@@H](CO)C(=O)O` (some centres unmarked) [IDP-S21, APKVXILKKATXYILS] (H-APKV[X1]ILKKAT[ξαMeNle(6-ylidene)]YILS-OH; staple 5-12), the IC50 in test [2] (setting [4]) and in test [3] (setting [5]) was more than 100 µM each time.

With `CCc1ccc(/C=C2/SC(=S)NC2=O)cc1` [10058-F4, reference compound], the IC50 is approximately 52 µM in test [2] (MCF7, MTT, incubation 24-72 h, Table 3, read-out: IC50 values) and approximately 57 µM in test [3] (Ramos, MTT, incubation 24-72 h, Table 3, read-out: IC50 values).

Regarding `CC[C@H](C)[C@@H]1NC(=O)[C@H](Cc2ccc(O)cc2)NC(=O)[C@H](C)NC(=O)[C@H]([C@@H](C)O)NC(=O)[C@H](C)NC(=O)C(C)(NC(=O)[C@H](CCCCN)NC(=O)[C@H](CC(C)C)NC(=O)[C@@H](NC(=O)[C@@H](NC(=O)[C@@H](NC(=O)[C@H](CCCCN)NC(=O)[C@@H]2CCCN2C(=O)[C@H](C)N)C(C)C)C(C)C)[C@@H](C)CC)CCCCCCC=CCCCC(C)(C(=O)N[C@H](C(=O)O)C(C)C)NC(=O)[C@H](CC(C)C)NC1=O` (some centres unmarked) [IDP-S23, APKVVILKXATAYILXV] (H-APKVVILK[X1]ATAYIL[ξαMeNle(6-ylidene)]V-OH; staple 9-16), the IC50 in test [2] (setting [4]) and in test [3] (setting [5]) was more than 100 µM in each case.

As to `CC[C@H](C)[C@H](NC(=O)C1(C)CCCC=CCCCCCCC(C)(NC(=O)[C@@H](NC(=O)[C@@H](NC(=O)[C@H](CCCCN)NC(=O)[C@@H]2CCCN2C(=O)[C@H](C)N)C(C)C)C(C)C)C(=O)N[C@@H](CC(C)C)C(=O)N[C@@H](CCCCN)C(=O)N[C@@H](CCCCN)C(=O)N[C@@H](C)C(=O)N[C@@H]([C@@H](C)O)C(=O)N[C@@H](C)C(=O)N1)C(=O)N[C@@H](CC(C)C)C(=O)N[C@@H](CO)C(=O)O` (some centres unmarked) [IDP-S22, APKVVXLKKATAXILS] (H-APKVV[X1]LKKATA[ξαMeNle(6-ylidene)]ILS-OH; staple 6-13; N-terminus and C-terminus assumed), the IC50 in test [2] and in test [3] was more than 100 µM each time.

For the compound `CC[C@H](C)[C@H](NC(=O)[C@H](Cc1ccc(O)cc1)NC(=O)[C@H](C)NC(=O)[C@@H](NC(=O)[C@H](C)NC(=O)C1(C)CCCC=CCCCCCCC(C)(NC(=O)[C@H](C)N)C(=O)N[C@@H](CCCCN)C(=O)N[C@@H](C(C)C)C(=O)N[C@@H](C(C)C)C(=O)N[C@@H]([C@@H](C)CC)C(=O)N[C@@H](CC(C)C)C(=O)N[C@@H](CCCCN)C(=O)N1)[C@@H](C)O)C(=O)N[C@@H](CC(C)C)C(=O)N[C@@H](CO)C(=O)O` (some centres unmarked) [IDP-S19, AXKVVILKXATAYILS] (H-A[X1]KVVILK[ξαMeNle(6-ylidene)]ATAYILS-OH; staple 2-9), the IC50 in test [2] (setting [4]) and in test [3] (setting [5]) was more than 100 µM each time.

(Values after patent publication US20200261534A1, “NEW TREATMENTS OF MULTIPLE MYELOMA” (priority 2017, published 2020).)
